Laboratory results reported in paper PMC3602366 (Insect biochemistry and molecular biology, 2013).
Where no end group is shown, it is not given here.

Experiments:
[1] = test system: SG acini; conditions: paracrine factor; ref Kaufman et al., 1999; Šimo et al., 2011a; cited from earlier work
[2] = target: MIP-R1 (I. scapularis myoinhibitory peptide receptor 1) (Ixodes scapularis, UniProt L7ZCA0); test: cell-based
[3] = target: SIFa-R (I. scapularis SIFamide receptor) (Ixodes scapularis, UniProt L7Z4E7); test: Receptor functional assay; format: cell-based
[4] = test system: synganglion; conditions: ref Kaufman, 1978; McSwain et al., 1992; cited from earlier work

| Compound | EC50 [2] [nM] | other results |
| --- | --- | --- |
| NCCc1ccc(O)c(O)c1 [Dopamine] | – | activation of SG acini [1]: acts as a paracrine factor for the activation of SG acini for fluid secretion |
| GGDWNALSGMW-NH2 [MIP1] | 40 | – |
| AYRKPPFNGSIF-NH2 [SIFamide] | – | EC50 [3]: 5.8 nM |
| ENHWNDLSGYW-NH2 [MIP3] | 15 | – |
| CC[C@@H]1C(=O)OC[C@@H]1Cc1cncn1C [pilocarpine] | – | activation of the synganglion [4]: activates the synganglion |
| ASDWNRLSGMW-NH2 [MIP2] | 32 | – |
